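Following 48 hours of exposure in 96-well plates, responses at five concentrations were used to interpolate endpoints linearly. At the GI50, growth is halved.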 The source made the active and inactive calls. No stated cut-off is given here; in the data, active = GI50 up to about 1.1 µM and inactive = higher.
How the values were obtained:
Experiment in all cases: growth of human tumour cells (NCI), 48 h
Malme-3M = tested on: Malme-3M
BT-549 = tested on: BT-549
MDA-MB-231 = tested on: MDA-MB-231
SF-268 = tested on: SF-268
HCT-116 = tested on: HCT-116
SK-MEL-5 = tested on: SK-MEL-5
A549 = tested on: A549
SNB-19 = tested on: SNB-19
UACC-62 = tested on: UACC-62
786-0 = tested on: 786-0
HOP-92 = tested on: HOP-92
CAKI-1 = tested on: CAKI-1
MOLT-4 = tested on: MOLT-4
MDA-MB-435 = tested on: MDA-MB-435
NCI-H23 = tested on: NCI-H23
NCI-H522 = tested on: NCI-H522
OVCAR-3 = tested on: OVCAR-3
K562 = tested on: K562
Hs-578T = tested on: Hs-578T

| SMILES | GI50 (Malme-3M) | GI50 (BT-549) | GI50 (MDA-MB-231) | GI50 (SF-268) | GI50 (HCT-116) | GI50 (SK-MEL-5) | GI50 (A549) | GI50 (SNB-19) | GI50 (UACC-62) | GI50 (786-0) | GI50 (HOP-92) | GI50 (CAKI-1) | GI50 (MOLT-4) | GI50 (MDA-MB-435) | GI50 (NCI-H23) | GI50 (NCI-H522) | GI50 (OVCAR-3) | GI50 (K562) | GI50 (Hs-578T) |
| --- | --- | --- | --- | --- | --- | --- | --- | --- | --- | --- | --- | --- | --- | --- | --- | --- | --- | --- | --- |
| CCC1C2Cc3ccc(O)cc3C1(CC)CCN2C (stereo not given) | > 100 µM (inactive) | > 100 µM (inactive) | > 100 µM (inactive) | > 100 µM (inactive) | > 100 µM (inactive) | > 100 µM (inactive) | > 100 µM (inactive) | > 100 µM (inactive) | > 100 µM (inactive) | > 100 µM (inactive) | > 100 µM (inactive) | > 100 µM (inactive) | > 100 µM (inactive) | > 100 µM (inactive) | > 100 µM (inactive) | > 100 µM (inactive) | > 100 µM (inactive) | > 100 µM (inactive) | > 100 µM (inactive) |
| Nc1ccc(Oc2ccc(C3(c4ccc(Oc5ccc(N)cc5)cc4)C4CC5C6CC7CC5C3C(C7)C6C4)cc2)cc1 | > 78.3 µM (inactive) | > 100 µM (inactive) | 23.1 µM (inactive) | > 53.2 µM (inactive) | 18.3 µM (inactive) | 52.6 µM (inactive) | 0.706 µM (active) | 37.4 µM (inactive) | 38.4 µM (inactive) | 9.66 µM (inactive) | 0.668 µM (active) | 39 µM (inactive) | 6.08 µM (inactive) | 19 µM (inactive) | 26.3 µM (inactive) | > 81.7 µM (inactive) | 2.01 µM (inactive) | 16 µM (inactive) | 62.5 µM (inactive) |
| Cc1ccc(C(=O)CC(Cl)=C(Cl)Cl)cc1 | > 100 µM (inactive) | > 100 µM (inactive) | 98.2 µM (inactive) | > 100 µM (inactive) | 61.9 µM (inactive) | > 100 µM (inactive) | > 100 µM (inactive) | > 100 µM (inactive) | > 100 µM (inactive) | 63.1 µM (inactive) | > 100 µM (inactive) | 38.8 µM (inactive) | 20.5 µM (inactive) | 55.7 µM (inactive) | > 100 µM (inactive) | 49.3 µM (inactive) | 45.6 µM (inactive) | 41.6 µM (inactive) | > 100 µM (inactive) |
| COC1/C=C/C(C)C(C(C)C(OC)C(C)CCC(=O)C(C)C(C/C=C/N(C)C=O)OC)OC(=O)/C=C/C=C(\C)CC(OC)C(OC)C2=CC(=O)O[C@@H](C(C)C(OC)CC(OC)/C=C/C(C)C(O)C1)[C@H]2O (stereo not given in full) | 0.148 µM (active) | 0.117 µM (active) | 0.0773 µM (active) | 0.129 µM (active) | < 0.0222 µM (active) | 0.0904 µM (active) | 0.15 µM (active) | 0.171 µM (active) | 0.137 µM (active) | 0.147 µM (active) | 0.0284 µM (active) | 0.0508 µM (active) | 0.105 µM (active) | 0.249 µM (active) | 0.145 µM (active) | 0.119 µM (active) | 0.0681 µM (active) | 0.0379 µM (active) | 0.0336 µM (active) |
| Nc1ccccc1CCCC(=O)O | > 100 µM (inactive) | > 100 µM (inactive) | > 100 µM (inactive) | > 100 µM (inactive) | > 100 µM (inactive) | > 100 µM (inactive) | > 100 µM (inactive) | > 100 µM (inactive) | > 100 µM (inactive) | > 100 µM (inactive) | > 100 µM (inactive) | > 100 µM (inactive) | > 100 µM (inactive) | > 100 µM (inactive) | > 100 µM (inactive) | > 100 µM (inactive) | > 100 µM (inactive) | > 100 µM (inactive) | > 100 µM (inactive) |
| COC(=O)c1n[nH]c(C)c1/N=N/N(C)CCC#N | 15.2 µM (inactive) | 10.9 µM (inactive) | 24.8 µM (inactive) | 15.1 µM (inactive) | 16.4 µM (inactive) | 26.9 µM (inactive) | 16.1 µM (inactive) | 28.7 µM (inactive) | 15.7 µM (inactive) | 17.7 µM (inactive) | 14.7 µM (inactive) | 11.3 µM (inactive) | 3.33 µM (inactive) | 59.8 µM (inactive) | 16.3 µM (inactive) | 10.5 µM (inactive) | 18.7 µM (inactive) | 15.3 µM (inactive) | 20.8 µM (inactive) |
| O=C(O)CCCCCNC(=O)CCC(CN(CC(=O)OCc1ccccc1)CC(=O)OCc1ccccc1)N(CC(=O)OCc1ccccc1)CC(=O)OCc1ccccc1 (stereo not given) | 19.2 µM (inactive) | 18.9 µM (inactive) | 19.5 µM (inactive) | 18.7 µM (inactive) | 17.1 µM (inactive) | 17.3 µM (inactive) | 17.4 µM (inactive) | 17.9 µM (inactive) | 16.7 µM (inactive) | 18 µM (inactive) | 13.3 µM (inactive) | 18.3 µM (inactive) | 15.2 µM (inactive) | 19.4 µM (inactive) | 18.4 µM (inactive) | 19.2 µM (inactive) | 17.3 µM (inactive) | 12.5 µM (inactive) | 20.5 µM (inactive) |
| COc1cc(C2c3cc4c(cc3OC(NNc3ccccc3)C2C)OCO4)cc(OC)c1O (stereo not given) | 3.42 µM (inactive) | 11.4 µM (inactive) | 1.12 µM (inactive) | 2.58 µM (inactive) | 1.52 µM (inactive) | 1.3 µM (inactive) | 1.41 µM (inactive) | 6.64 µM (inactive) | 0.132 µM (active) | 3.18 µM (inactive) | 9.2 µM (inactive) | 3.33 µM (inactive) | 0.275 µM (active) | 0.204 µM (active) | 5.6 µM (inactive) | 0.561 µM (active) | 2.36 µM (inactive) | 0.0893 µM (active) | 2.83 µM (inactive) |
| CC(=O)Nc1c2sscc-2n(C)c1=O [THIOLUTIN] | 0.787 µM (active) | 1.43 µM (inactive) | 1.73 µM (inactive) | 1.56 µM (inactive) | 0.695 µM (active) | 1.33 µM (inactive) | 1.55 µM (inactive) | 1.96 µM (inactive) | 0.443 µM (active) | 1.52 µM (inactive) | 2.23 µM (inactive) | 1.89 µM (inactive) | 0.152 µM (active) | 1.01 µM (active) | 0.853 µM (active) | 1.3 µM (inactive) | 1.82 µM (inactive) | 1.52 µM (inactive) | 2.6 µM (inactive) |
| O=C(O)C(CCc1ccccn1)c1ccccc1 (stereo not given) | > 100 µM (inactive) | > 100 µM (inactive) | > 100 µM (inactive) | > 100 µM (inactive) | > 100 µM (inactive) | > 100 µM (inactive) | > 100 µM (inactive) | > 100 µM (inactive) | > 100 µM (inactive) | > 100 µM (inactive) | > 50.4 µM (inactive) | > 100 µM (inactive) | > 100 µM (inactive) | > 100 µM (inactive) | > 100 µM (inactive) | > 100 µM (inactive) | > 100 µM (inactive) | > 100 µM (inactive) | > 100 µM (inactive) |
| Cc1cc(-c2ccc(C(=O)O)[nH]2)on1 | 38.2 µM (inactive) | > 100 µM (inactive) | > 100 µM (inactive) | > 100 µM (inactive) | 29.2 µM (inactive) | 16.1 µM (inactive) | 34.8 µM (inactive) | 61.4 µM (inactive) | 48 µM (inactive) | 51.4 µM (inactive) | 66.7 µM (inactive) | 79.1 µM (inactive) | > 100 µM (inactive) | 6.98 µM (inactive) | 69 µM (inactive) | 29 µM (inactive) | 32.4 µM (inactive) | 56 µM (inactive) | 49.2 µM (inactive) |
| Cc1ccc([N+](=O)[O-])cc1S(=O)(=O)Nc1ccc(C2=NOC(c3ccco3)C2)cc1 (stereo not given) | 16.6 µM (inactive) | 18 µM (inactive) | 17.1 µM (inactive) | 26.1 µM (inactive) | 16.4 µM (inactive) | 13.2 µM (inactive) | 21.9 µM (inactive) | 18.7 µM (inactive) | 11.7 µM (inactive) | 18.2 µM (inactive) | 29.2 µM (inactive) | 22.8 µM (inactive) | 15.1 µM (inactive) | 3.03 µM (inactive) | 16.5 µM (inactive) | 10.7 µM (inactive) | 14.8 µM (inactive) | 4.7 µM (inactive) | 29.8 µM (inactive) |
| O=C1CSSCC(=O)Nc2ccccc2N1 | > 100 µM (inactive) | > 100 µM (inactive) | > 100 µM (inactive) | > 100 µM (inactive) | > 100 µM (inactive) | > 100 µM (inactive) | > 100 µM (inactive) | > 100 µM (inactive) | > 100 µM (inactive) | > 100 µM (inactive) | > 100 µM (inactive) | > 100 µM (inactive) | 55.6 µM (inactive) | > 100 µM (inactive) | > 100 µM (inactive) | > 100 µM (inactive) | > 100 µM (inactive) | > 100 µM (inactive) | > 100 µM (inactive) |
| CCc1nnc(-n2c(C)nc3cc(Cl)ccc3c2=O)s1 | 16 µM (inactive) | 44.6 µM (inactive) | 83 µM (inactive) | 37.8 µM (inactive) | 26.4 µM (inactive) | 21.3 µM (inactive) | 31 µM (inactive) | 36.1 µM (inactive) | 22.1 µM (inactive) | 26.5 µM (inactive) | 27 µM (inactive) | 80.9 µM (inactive) | 26.3 µM (inactive) | 35 µM (inactive) | 31.6 µM (inactive) | 20.5 µM (inactive) | 18.7 µM (inactive) | 29 µM (inactive) | 28.2 µM (inactive) |
| O=C(CCN1CC2CCC(CC2)C1)c1cccs1 | 21.1 µM (inactive) | 21.4 µM (inactive) | 18.2 µM (inactive) | 21.2 µM (inactive) | 19.1 µM (inactive) | 40.1 µM (inactive) | 23.9 µM (inactive) | > 53 µM (inactive) | 17.7 µM (inactive) | 5.35 µM (inactive) | 6.01 µM (inactive) | 18.7 µM (inactive) | 3.32 µM (inactive) | 20.8 µM (inactive) | 18.4 µM (inactive) | 17.4 µM (inactive) | 21.1 µM (inactive) | 17.5 µM (inactive) | 27.3 µM (inactive) |
